Reference: US20040133938A1, “Use of lipoic acid in plant culture media” (priority 2002, published 2004)

Tested on: A3244 soybean seed axis explants
Assay: Soybean Agrobacterium transformation, lipoic acid in co-culture media
Assay type: cell-based
Experimental: Dry A3244 soybean seeds were germinated by soaking in sterile distilled water (SDW) for three minutes, drained and allowed to slowly imbibe for 2 hours at which time Bean Germination Media (BGM) was added. At approximately 12 hours, seed axis explants were isolated by removing seed coats and cotyledons. Inoculation occurred 14 hours after the addition of SDW.
Explants were placed into sterile Plantcons™ with 20 mL of pMON15737/ABI (FIG. 3) and resuspended to an optical density A660 of approximately 0.3 in 1/10 Gamborg's B5 media (Gamborg et al., Exp. Cell Res., 50:151-158, 1968) containing 3% glucose, 1.68 mg/L BAP, 3.9 g/L MES, […] acetosyringone, 1 mM galactronic acid, and 0.25 mg/L GA3. Each Plantcon™ was sonicated for 20 seconds in a L&R Quantrex S140 sonicator that contained SDW+0.1% Triton X100 in the bath. Plantcons™ were held in place at approximately 2.5 cm below the surface of the bath liquid. Following sonication, explants were inoculated for an additional hour while shaking gently on an orbital shaker at ˜90 RPM. After inoculation, the Agrobacterium was removed. […] Co-culture media consisted of 1/10 Gamborg's B5 media containing 5% glucose, 1.68 mg/L BAP, 3.9 g/L, […] acetosyringone, 1 mM galactronic acid and 0.25 mg/L GA3. Explants were incubated at 23° C. in the dark for 3 days.
Lipoic acid was dissolved in either ethanol or potassium hydroxide to make 100 mg/mL stock. […]
Following co-culture, explants were transferred to solid Woody Plant Media (WPM) (McCown & Lloyd, Proc. International Plant Propagation Soc., 30:421, 1981) containing 2% sucrose, 200 mg/L carbenicillin, 100 mg/L Timetin (ticarcillin+clavulanic acid), +/−100 mg/L cefotaxime, 60 mg/L Benomyl, and 75 μM glyphosate. All explants were placed at 28° C., 16-hour light/8-hour dark photoperiod. A second transfer to the same media was made after two weeks.
Shoots were cut 5-8 weeks post-inoculation and rooted on Bean Rooting Media (BRM) containing 25 μM glyphosate and 100 mg/L Timetin.

[1] = 5 uM LA, KOH, 248 explants, Table 12
[2] = 5 uM LA, 244 explants, Table 12
[3] = 10 uM LA, KOH, 240 explants, Table 12
[4] = 10 uM LA, 247 explants, Table 12
[5] = 50 uM LA, KOH, 246 explants, Table 12
[6] = 50 uM LA, 242 explants, Table 12
[7] = 100 uM LA, KOH, 246 explants, Table 12
[8] = 100 uM LA, 396 explants, Table 12
[9] = 250 uM LA, KOH, 505 explants, Table 11
[10] = 250 uM LA, 246 explants, Table 12
[11] = 250 uM LA, 486 explants, Table 11
[12] = 500 uM LA*, 171 explants, Table 12
[13] = 500 uM LA, KOH, 462 explants, Table 11
[14] = 500 uM LA, 531 explants, Table 11
[15] = 750 uM LA, KOH, 454 explants, Table 11
[16] = 750 uM LA, 535 explants, Table 11
[17] = 1000 uM LA, KOH, 471 explants, Table 11
[18] = 1000 uM LA, 530 explants, Table 11
[19] = 1500 uM LA, KOH, 498 explants, Table 11
[20] = 1500 uM LA, 538 explants, Table 11

O=C(O)CCCCC1CCSS1 (centres unmarked) [lipoic acid, 1,2-dithiolane-3-pentanoic acid]
Shooting Frequency [1]: 5% | Total Rooted Plants [1]: 2 | Total Shoots [1]: 13 | Transformation Efficiency [1]: 0.8% | Shooting Frequency [2]: 7% | Total Rooted Plants [2]: 3 | Total Shoots [2]: 18 | Transformation Efficiency [2]: 1.2% | Shooting Frequency [3]: 5% | Total Rooted Plants [3]: 0 | Total Shoots [3]: 13 | Transformation Efficiency [3]: 0.0% | Shooting Frequency [4]: 6% | Total Rooted Plants [4]: 0 | Total Shoots [4]: 14 | Transformation Efficiency [4]: 0.0% | Shooting Frequency [5]: 7% | Total Rooted Plants [5]: 1 | Total Shoots [5]: 17 | Transformation Efficiency [5]: 0.4% | Shooting Frequency [6]: 9% | Total Rooted Plants [6]: 1 | Total Shoots [6]: 22 | Transformation Efficiency [6]: 0.4% | Shooting Frequency [7]: 7% | Total Rooted Plants [7]: 2 | Total Shoots [7]: 18 | Transformation Efficiency [7]: 0.8% | Shooting Frequency [8]: 10% | Total Rooted Plants [8]: 3 | Total Shoots [8]: 39 | Transformation Efficiency [8]: 0.8% | Rooted Plants [9]: 13 | Shooting Frequency [9]: 12% | Total Shoots [9]: 63 | Transformation Efficiency [9]: 2.6% | Shooting Frequency [10]: 13% | Total Rooted Plants [10]: 9 | Total Shoots [10]: 32 | Transformation Efficiency [10]: 3.7% | Rooted Plants [11]: 7 | Shooting Frequency [11]: 14% | Total Shoots [11]: 69 | Transformation Efficiency [11]: 1.4% | Shooting Frequency [12]: 11% | Total Rooted Plants [12]: 5 | Total Shoots [12]: 19 | Transformation Efficiency [12]: 2.9% | Rooted Plants [13]: 7 | Shooting Frequency [13]: 10% | Total Shoots [13]: 44 | Transformation Efficiency [13]: 1.5% | Rooted Plants [14]: 9 | Shooting Frequency [14]: 12% | Total Shoots [14]: 64 | Transformation Efficiency [14]: 1.7% | Rooted Plants [15]: 7 | Shooting Frequency [15]: 12% | Total Shoots [15]: 56 | Transformation Efficiency [15]: 1.5% | Rooted Plants [16]: 9 | Shooting Frequency [16]: 12% | Total Shoots [16]: 62 | Transformation Efficiency [16]: 1.7% | Rooted Plants [17]: 6 | Shooting Frequency [17]: 8% | Total Shoots [17]: 40 | Transformation Efficiency [17]: 1.3% | Rooted Plants [18]: 12 | Shooting Frequency [18]: 10% | Total Shoots [18]: 52 | Transformation Efficiency [18]: 2.3% | Rooted Plants [19]: 10 | Shooting Frequency [19]: 11% | Total Shoots [19]: 57 | Transformation Efficiency [19]: 2.0% | Rooted Plants [20]: 13 | Shooting Frequency [20]: 10% | Total Shoots [20]: 53 | Transformation Efficiency [20]: 2.4% | increase of transformation frequency (lipoic acid concentration of 250 μM): about ninefold | effect on transformation efficiency, shoot and rooted plant production (lipoic acid concentrations of 250 μM to 1500 μM): increased transformation efficiency | effectiveness in the soybean transformation protocol (low levels of lipoic acid (5 to 100 μM)): not particularly effective
